{"source": "patent US12435068B2", "about": "“Anthelmintic compounds” (Elanco Animal Health GmBh, priority 2018, dated 2025)", "key": {"[1]": {"tested_on": "Dirofilaria immitis microfilariae", "test": "In Vitro Assay 2: Dirofilaria immitis microfilariae (DIROIM L1) motility", "type": "cell-based", "details": "72 h, read-out: EC50 ppm"}, "C. elegans Slo-1a": {"target": "C. elegans Slo-1a (Caenorhabditis elegans, UniProt Q95V25)", "sequence (Q95V25 whole entry)": "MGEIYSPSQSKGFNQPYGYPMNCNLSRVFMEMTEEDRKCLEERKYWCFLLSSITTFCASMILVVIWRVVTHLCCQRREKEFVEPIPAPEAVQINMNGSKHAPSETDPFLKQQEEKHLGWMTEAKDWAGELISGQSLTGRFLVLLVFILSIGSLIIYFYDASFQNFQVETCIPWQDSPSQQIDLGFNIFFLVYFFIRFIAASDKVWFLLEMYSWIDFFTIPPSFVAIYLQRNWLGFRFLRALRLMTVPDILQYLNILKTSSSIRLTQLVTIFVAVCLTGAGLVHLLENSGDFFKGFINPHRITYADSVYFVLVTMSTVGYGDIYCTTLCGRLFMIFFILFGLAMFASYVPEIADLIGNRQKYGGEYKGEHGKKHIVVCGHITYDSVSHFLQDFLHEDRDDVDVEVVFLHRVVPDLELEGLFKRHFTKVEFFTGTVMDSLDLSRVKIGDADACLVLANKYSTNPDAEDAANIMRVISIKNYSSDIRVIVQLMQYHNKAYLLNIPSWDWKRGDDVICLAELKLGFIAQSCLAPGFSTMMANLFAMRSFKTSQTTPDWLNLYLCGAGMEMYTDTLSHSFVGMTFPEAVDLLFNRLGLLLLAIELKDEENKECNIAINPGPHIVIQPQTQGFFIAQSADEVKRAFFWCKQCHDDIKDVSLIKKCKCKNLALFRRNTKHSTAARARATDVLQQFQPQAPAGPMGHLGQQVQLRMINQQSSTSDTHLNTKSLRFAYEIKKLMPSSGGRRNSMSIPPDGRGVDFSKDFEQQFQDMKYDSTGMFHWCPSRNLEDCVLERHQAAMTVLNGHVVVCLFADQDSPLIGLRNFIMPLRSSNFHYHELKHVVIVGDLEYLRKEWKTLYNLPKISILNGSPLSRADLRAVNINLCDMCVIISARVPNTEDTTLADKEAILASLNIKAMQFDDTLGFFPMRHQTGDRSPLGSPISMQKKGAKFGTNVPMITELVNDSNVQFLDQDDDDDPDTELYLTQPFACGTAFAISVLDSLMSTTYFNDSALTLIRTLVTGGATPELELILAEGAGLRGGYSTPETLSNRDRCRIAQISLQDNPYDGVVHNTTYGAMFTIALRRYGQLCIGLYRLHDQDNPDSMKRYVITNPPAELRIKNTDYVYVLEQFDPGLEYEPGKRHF", "description": "Cells were cultured at 37° C. and 5% CO2 in MEMalpha with Gutamax I (Invitrogen, Nr.: 32571), supplemented with 10% (v/v) heat inactivated fetal bovine serum (Invitrogen, Nr.: 10500), G418 (1 mg/ml, Invitrogen, Nr.: 10131). Cells were detached using Accutase (Sigma, Nr.: A6964).\nMembrane Potential Measurements\nLaboratory compound testing was performed on 384-well microtiter plates (MTPs, Greiner, Nr.: 781092). 8000 cells/well were plated onto 384-well MTPs and cultured for 20 to 24 hours at 37° C. and 5% CO2. After removal of the cell culture medium, the cells were washed once with tyrode (150 mM NaCl, 0.3 mM KCl, 2 mM CaCl2, 1 mM MgCl2, 0.8 mM NaH2PO4, 5 mM Glucose, 28 mM Hepes, pH 7.4) and then loaded with the voltage sensitive dye of the Membrane Potential Assay Kit diluted in tyrode for 1 h at room temperature.\nAfter starting the measurement of fluorescence using a FLIPR Tetra (Molecular Devices, Exc. 510-545 nm, Emm. 565-625 nm), test compounds were added followed by the addition of KCl tyrode (final assay concentration: 70 mM KCl, 2 mM CaCl2, 1 mM MgCl2, 0.8 mM NaH2PO4, 5 mM Glucose, 28 mM Hepes, pH 7.4, including the voltage sensitive dye). The measurement was completed after 7 minutes."}}, "note": "pEC50: −log10 of the molar value."}
{"smiles": "O=C(N[C@H]1CCc2ccccc21)c1ccc2nc(-c3ccccc3Cl)cnc2c1", "note": "[Example Compound S9-3, 2-(2-Chlorophenyl)-N-[(1S)-2,3-dihydro-1H-inden-1-yl]quinoxaline-6-carboxamide]", "values": [{"measurement": "EC50", "setting": "[1]", "value": 0.61, "unit": "µg/mL"}, {"measurement": "pEC50", "setting": "C. elegans Slo-1a", "value": 7.00}]}
{"smiles": "COc1c(C(=O)N[C@H]2CCOc3ccccc32)sc2c(-c3cc(Cl)cc(Cl)c3)cccc12", "note": "[Example Compound S1-9, 7-(3,5-Dichlorophenyl)-N-[(4S)-3,4-dihydro-2H-chromen-4-yl]-3-methoxy-1-benzothiophene-2-carboxamide]", "values": [{"measurement": "EC50", "setting": "[1]", "value": 0.27, "unit": "µg/mL"}, {"measurement": "pEC50", "setting": "C. elegans Slo-1a", "value": 6.60}]}
{"smiles": "COc1c(C(=O)N[C@H]2CCOc3ccccc32)sc2c(-c3cccc(Cl)c3)cccc12", "note": "[Example Compound S1-10, 7-(3-Chlorophenyl)-N-[(4S)-3,4-dihydro-2H-chromen-4-yl]-3-methoxy-1-benzothiophene-2-carboxamide]", "values": [{"measurement": "EC50", "setting": "[1]", "value": 0.37, "unit": "µg/mL"}, {"measurement": "pEC50", "setting": "C. elegans Slo-1a", "value": 6.40}]}
{"smiles": "O=C(N[C@H]1CCOc2ccccc21)c1cnc2c(cnn2-c2c(F)cccc2F)c1Cl", "note": "[Example Compound S4-1, 4-Chloro-1-(2,6-difluorophenyl)-N-[(4S)-3,4-dihydro-2H-chromen-4-yl]-1H-pyrazolo[3,4-b]pyridine-5-carboxamide]", "values": [{"measurement": "EC50", "setting": "[1]", "value": 0.41, "unit": "µg/mL"}, {"measurement": "pEC50", "setting": "C. elegans Slo-1a", "value": 5.95}]}
{"smiles": "CC(C)c1c(C(=O)N[C@H]2CCOc3ccccc32)sc2c(-c3cc(Cl)cc(Cl)c3)cccc12", "note": "[Example Compound S1-1, 7-(3,5-Dichlorophenyl)-N-[(4S)-3,4-dihydro-2H-chromen-4-yl]-3-isopropyl-1-benzothiophene-2-carboxamide]", "values": [{"measurement": "EC50", "setting": "[1]", "value": 0.08, "unit": "µg/mL"}, {"measurement": "pEC50", "setting": "C. elegans Slo-1a", "value": 8.60}]}
{"smiles": "O=C(N[C@H]1CCOc2ccccc21)c1cnc2c(ccc(=O)n2-c2cc(Cl)cc(Cl)c2)c1", "note": "[Example Compound S7-1, 8-(3,5-Dichlorophenyl)-N-[(4S)-3,4-dihydro-2H-chromen-4-yl]-7-oxo-7,8-dihydro-1,8-naphthyridine-3-carboxamide]", "values": [{"measurement": "EC50", "setting": "[1]", "value": 1.95, "unit": "µg/mL"}, {"measurement": "pEC50", "setting": "C. elegans Slo-1a", "value": 6.70}]}
{"smiles": "CN(C)c1c(C(=O)N[C@H]2CCOc3ccccc32)sc2c(-c3cc(Cl)cc(Cl)c3)cccc12", "note": "[Example Compound S1-5, 7-(3,5-Dichlorophenyl)-N-[(4S)-3,4-dihydro-2H-chromen-4-yl]-3-(dimethylamino)-1-benzothiophene-2-carboxamide]", "values": [{"measurement": "EC50", "setting": "[1]", "value": 0.25, "unit": "µg/mL"}, {"measurement": "pEC50", "setting": "C. elegans Slo-1a", "value": 7.60}]}
{"smiles": "CC(C)n1c(C(=O)N[C@H]2CCOc3ccccc32)cc2c(-c3cc(Cl)cc(Cl)c3Cl)cccc21", "note": "[Example Compound S2-4, N-[(4S)-3,4-Dihydro-2H-chromen-4-yl]-1-(propan-2-yl)-4-(2,3,5-trichlorophenyl)-1H-indole-2-carboxamide]", "values": [{"measurement": "EC50", "setting": "[1]", "value": 0.02, "unit": "µg/mL"}, {"measurement": "pEC50", "setting": "C. elegans Slo-1a", "value": 7.80}]}
{"smiles": "O=C(N[C@H]1CCc2ccccc21)c1ccc2nc(-c3cccc(C(F)(F)F)c3Cl)cnc2c1", "note": "[Example Compound S9-6, 2-[2-Chloro-3-(trifluoromethyl)phenyl]-N-[(1S)-2,3-dihydro-1H-inden-1-yl]quinoxaline-6-carboxamide]", "values": [{"measurement": "EC50", "setting": "[1]", "value": 0.44, "unit": "µg/mL"}, {"measurement": "pEC50", "setting": "C. elegans Slo-1a", "value": 7.50}]}
{"smiles": "CC(C)c1c(C(=O)N[C@H]2CCc3ccccc32)ccc2c1nnn2-c1cccc(Cl)c1", "note": "[Example Compound S4-8, 1-(3-Chlorophenyl)-N-[(1S)-2,3-dihydro-1H-inden-1-yl]-4-(propan-2-yl)-1H-benzotriazole-5-carboxamide]", "values": [{"measurement": "EC50", "setting": "[1]", "value": "> 2", "unit": "µg/mL"}, {"measurement": "pEC50", "setting": "C. elegans Slo-1a", "value": 5.00}]}
{"smiles": "O=C(N[C@H]1CCOc2ccccc21)c1sc2c(-c3cccc(Cl)c3Cl)cccc2c1Cl", "note": "[Example Compound S1-12, 3-Chloro-7-(2,3-dichlorophenyl)-N-[(4S)-3,4-dihydro-2H-chromen-4-yl]-1-benzothiophene-2-carboxamide]", "values": [{"measurement": "EC50", "setting": "[1]", "value": 0.1, "unit": "µg/mL"}, {"measurement": "pEC50", "setting": "C. elegans Slo-1a", "value": 6.80}]}
{"smiles": "Cn1c(C(=O)N[C@H]2CCc3ccccc32)nc2c(-c3cccc(Cl)c3Cl)ccnc21", "note": "[Example Compound S2-2, 7-(2,3-Dichlorophenyl)-N-[(1S)-2,3-dihydro-1H-inden-1-yl]-3-methyl-3H-imidazo[4,5-b]pyridine-2-carboxamide]", "values": [{"measurement": "EC50", "setting": "[1]", "value": 0.37, "unit": "µg/mL"}, {"measurement": "pEC50", "setting": "C. elegans Slo-1a", "value": 6.30}]}
{"smiles": "Cn1c(C(=O)N[C@H]2CCOc3ccccc32)nc2c(-c3cccc(Cl)c3Cl)ccnc21", "note": "[Example Compound S2-1, 7-(2,3-Dichlorophenyl)-N-[(4S)-3,4-dihydro-2H-chromen-4-yl]-3-methyl-3H-imidazo[4,5-b]pyridine-2-carboxamide]", "values": [{"measurement": "EC50", "setting": "[1]", "value": 0.63, "unit": "µg/mL"}, {"measurement": "pEC50", "setting": "C. elegans Slo-1a", "value": 7.50}]}
{"smiles": "CC(C)n1c(C(=O)N[C@H]2CCOc3ccccc32)cc2c(-c3cc(Cl)nc(Cl)c3)cccc21", "note": "[Example Compound S2-3, 4-(2,6-Dichloropyridin-4-yl)-N-[(4S)-3,4-dihydro-2H-chromen-4-yl]-1-(propan-2-yl)-1H-indole-2-carboxamide]", "values": [{"measurement": "EC50", "setting": "[1]", "value": "> 2", "unit": "µg/mL"}, {"measurement": "pEC50", "setting": "C. elegans Slo-1a", "value": 7.00}]}
{"smiles": "CN(C)c1c(C(=O)N[C@H]2CCOc3ccccc32)cnc2c1n(C)c(=O)n2-c1cc(Cl)cc(Cl)c1", "note": "[Example Compound S5-1, 3-(3,5-Dichlorophenyl)-N-[(4S)-3,4-dihydro-2H-chromen-4-yl]-7-(dimethylamino)-1-methyl-2-oxo-2,3-dihydro-1H-imidazo[4,5-b]pyridine-6-carboxamide]", "values": [{"measurement": "EC50", "setting": "[1]", "value": 0.38, "unit": "µg/mL"}, {"measurement": "pEC50", "setting": "C. elegans Slo-1a", "value": 7.00}]}
{"smiles": "COc1c(C(=O)N[C@H]2CCOc3ccccc32)sc2c(-c3cccc(Cl)c3Cl)nccc12", "note": "[Example Compound S1-16, 7-(2,3-Dichlorophenyl)-N-[(4S)-3,4-dihydro-2H-chromen-4-yl]-3-methoxythieno[2,3-c]pyridine-2-carboxamide]", "values": [{"measurement": "EC50", "setting": "[1]", "value": 0.18, "unit": "µg/mL"}, {"measurement": "pEC50", "setting": "C. elegans Slo-1a", "value": 7.60}]}
{"smiles": "O=C(N[C@H]1CCOc2ccccc21)c1ccc2c(-c3cccc(Cl)c3Cl)cccc2c1", "note": "[Example Compound S6-1, 5-(2,3-Dichlorophenyl)-N-[(4S)-3,4-dihydro-2H-chromen-4-yl]naphthalene-2-carboxamide]", "values": [{"measurement": "EC50", "setting": "[1]", "value": 0.63, "unit": "µg/mL"}, {"measurement": "pEC50", "setting": "C. elegans Slo-1a", "value": 7.10}]}
{"smiles": "CC(C)n1c(C(=O)N[C@H]2CCOc3ccccc32)cc2c(-c3cccc(Cl)c3Cl)cccc21", "note": "[Example Compound S2-7, 4-(2,3-Dichlorophenyl)-N-[(4S)-3,4-dihydro-2H-chromen-4-yl]-1-(propan-2-yl)-1H-indole-2-carboxamide]", "values": [{"measurement": "EC50", "setting": "[1]", "value": 0.01, "unit": "µg/mL"}, {"measurement": "pEC50", "setting": "C. elegans Slo-1a", "value": 7.70}]}
{"smiles": "O=C(N[C@H]1CCOc2ccccc21)c1sc2c(-c3cc(Cl)cc(Cl)c3)ccc(F)c2c1N1CCOCC1", "note": "[Example Compound S1-18, 7-(3,5-Dichlorophenyl)-N-[(4S)-3,4-dihydro-2H-chromen-4-yl]-4-fluoro-3-(morpholin-4-yl)-1-benzothiophene-2-carboxamide]", "values": [{"measurement": "EC50", "setting": "[1]", "value": 0.27, "unit": "µg/mL"}, {"measurement": "pEC50", "setting": "C. elegans Slo-1a", "value": 6.90}]}
{"smiles": "O=C(N[C@H]1CCOc2ccccc21)C1=Cc2cccc(-c3cc(Cl)cc(Cl)c3)c2OC1", "note": "[Example Compound S8a-4, 8-(3,5-Dichlorophenyl)-N-[(4S)-3,4-dihydro-2H-chromen-4-yl]-2H-chromene-3-carboxamide]", "values": [{"measurement": "EC50", "setting": "[1]", "value": "> 2", "unit": "µg/mL"}, {"measurement": "pEC50", "setting": "C. elegans Slo-1a", "value": 7.70}]}
{"smiles": "CC(C)c1c(C(=O)N[C@H]2CCc3ccccc32)ccc2c1nnn2-c1ccccc1Cl", "note": "[Example Compound S4-10, 1-(2-Chlorophenyl)-N-[(1S)-2,3-dihydro-1H-inden-1-yl]-4-(propan-2-yl)-1H-benzotriazole-5-carboxamide]", "values": [{"measurement": "EC50", "setting": "[1]", "value": "> 2", "unit": "µg/mL"}, {"measurement": "pEC50", "setting": "C. elegans Slo-1a", "value": 5.50}]}
{"smiles": "O=C(N[C@H]1CCc2ccccc21)c1ccc2nc(-c3cccc(Cl)c3Cl)cnc2c1", "note": "[Example Compound S9-5, 2-(2,3-Dichlorophenyl)-N-[(1S)-2,3-dihydro-1H-inden-1-yl]quinoxaline-6-carboxamide]", "values": [{"measurement": "EC50", "setting": "[1]", "value": 0.37, "unit": "µg/mL"}, {"measurement": "pEC50", "setting": "C. elegans Slo-1a", "value": 7.50}]}
